What was measured:
[1] = molecular target: T1, UBE2C (endogenous, HCC cells) (Homo sapiens, UniProt O00762); assay: cellular thermal shift assay, Western blot; assay type: cell-based; conditions: 20 µM, 24 h
T1 construct: endogenous protein in hepatocellular carcinoma cells, detected by Western blot (anti-UBE2C EPR-23165-31)
T1 sequence (O00762 2-179): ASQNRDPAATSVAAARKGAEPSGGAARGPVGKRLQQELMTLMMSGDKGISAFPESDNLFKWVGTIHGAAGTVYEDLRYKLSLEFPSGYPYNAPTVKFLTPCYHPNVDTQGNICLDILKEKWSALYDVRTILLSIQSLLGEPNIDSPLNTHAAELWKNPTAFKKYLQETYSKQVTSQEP

[2] = molecular target: T2, GFP-tagged UBE2C (pcDNA3.1-eGFP-UBE2C) (Homo sapiens, UniProt O00762); assay: CETSA, heated at […] °C for […] min; assay type: cell-based; conditions: cells treated with Halorotetin B 24 h before purification
T2 sequence (O00762 2-179): T1 sequence (O00762 2-179)

recombinant human UBE2C [3] = molecular target: T3, recombinant human UBE2C (Homo sapiens, UniProt O00762); assay: surface plasmon resonance, […] Langmuir fit; assay type: binding
T3 sequence (O00762 2-179): T1 sequence (O00762 2-179)

recombinant human UBE2C [4] = molecular target: T3, recombinant human UBE2C; assay: ubiquitylation kit, ubiquitin chain / E2-Ub formation, Western blot; assay type: biochemical; conditions: 37 °C, 4 h; source of E2 not told

Kd (recombinant human UBE2C [3]): 6.71 µM
SMILES: CC(=O)/C=C/C=C(/C)C#CC1=C(C)C[C@@H](O)CC1(C)C [Halorotetin B]
cellular thermal shift assay, Western blot [1]: UBE2C exhibited significant thermal stabilization upon Halorotetin B treatment
CETSA, heated at 77 °C for 10 min [2]: The thermal stabilization of wide type UBE2C and Ser51‐mutant UBE2C
ubiquitylation kit, ubiquitin chain / E2-Ub formation, Western blot (recombinant human UBE2C [4]): Halorotetin B significantly suppressed the enzymatic activity of UBE2C protein
